Read-outs that look alike come from different tables or passages of the source. Marks after values point to notes of the source that are not given here.
Assays:
[1] = Pharmacokinetic analysis of rabbit plasma after topical dosing, Example 5; assay type: in vivo; conditions: for Amount of drug absorbed into systemic circulation at lower doses compared to exposure at 2.5 mg/kg: lower topical doses vs 2.5 mg/kg (Table 6); for AUC: rabbit, plasma, topical or ocular, day 11, read-out: Systemic AUC
Procedure: Immediately after recovery from anesthesia, the animals were dosed with the appropriate test articles as indicated above. Drug dosing was performed once daily for 14 d. Blood samples were collected on day 11 of dosing at 0, 30, 60, 120, 240 and 1440 minutes post administration and to plasma separated for LCMS analysis of parent drug concentrations. Tears were collected using Schirmer tear strips (Alcon, Tex.) on day 0 before surgery and 24 hours after the last administration of drug (day 15). The tears were stored at −80° C. until shipment for lipid analysis. Lipids were hydrolyzed, extracted from the Schirmer strips, derivatized, and subjected to GC-FID to evaluate the lipid composition. The samples were evaluated for the presence of 28 saturated and unsaturated fatty acids that included methyl caprate (C10:0), methyl laurate (C12:0), methyl 11-dodecenoate (C12:1), methyl myri state (C14:0), methyl myristoleate (C14:1), methyl palmitate (C16:0), methyl palmitoleate (C16:1), methyl stearate (C18:0), methyl oleate (C18:1), methyl vaccenate (C18:1), methyl linoleate (C18:2), methyl gamma linoleate (C18:3), methyl linoleate (C18:3), methyl arachidate (C20:0), methyl 11-eicosenoate (C20:1), methyl 11,14 eicosadinoate (C20:2), methyl 8,11,14 eicosatrienoate (C20:3), methyl eicosapentaenoate (C20:5), methyl behenate (C22:0), methyl erucate (C22:1), methyl 13,16 docosaenoate (C22:2), methyl docosatetraenoate (C22:4), methyl docosapentaenoate (C22:5), methyl docosahexaenoate (C22:6), methyl lignocerate and (C24:0), methyl nervonate (C24:1). Area under the curve for each individual peak was determined using the GC ChemStation software. To normalize for the tear content, the lipid composition was expressed as a ratio of the lipid that was most affected by castration (palmitate) to one which remained relatively constant (stearate).
Plasma samples collected after dosing were analyzed using an LCMS/MS method. Briefly, plasma samples were prepared by protein precipitation extraction. (S)—N-(4-Cyano-3-(trifluoromethyl)phenyl)-3-(4-chlorophenoxy)-2-hydroxy-2-methylpropanamide was used as internal standard. The analysis of Compound 1 and Compound 2 was performed using an LC-MS/MS system consisting of an Agilent 1100 HPLC with an MDS/Sciex 4000 Q-Trap™ mass spectrometer. The separation was achieved using a C18 analytical column (Alltima™, 2.1×100 mm, 3 μm) protected by a C18 guard column (SecurityGuard™ 4.0×2.0 mm ID, Phenomenex). Mobile phase consisted of 60% acetonitrile, 40% water and 0.1% formic acid. Mobile phase was delivered at a flow rate of 0.3 mL/min Multiple reaction monitoring (MRM) scans were performed using curtain gas and a source temperature of 500° C. Molecular ions were formed using an ion spray voltage of −4500 V. Product ions were formed in nitrogen gas at a declustering potential of −55 V (Compound 1), −64 V (Compound 2), and −78 V (Internal standard) and collision energy of −24.0 V (Compound 1, m/z 388.0→117.9), −26.0 V (Compound 2, m/z 406.1→135.9), and −22.4 V (Internal standard, m/z 396.9→241.0). The plasma concentration—time data were analyzed by non-compartmental methods using WinNonlin (Version 3.1, Pharsight Corporation, Mountain View, Calif., USA). The area under the plasma concentration—time curve from time zero to infinity (AUC) was calculated by the trapezoidal rule with extrapolation to time infinity.
Systemic exposures after topical administration of the blood was determined in peripheral blood samples obtained at 30, 60, […], 240 and 1440 minutes after drug administration on day 11 of the study.

[2] = test system: acute orchiectomized (ORX) rabbit model; assay: Palmitate:stearate ratios in tears, Meibomian glands and harderian glands, Example 4; assay type: in vivo; conditions: for Palmitate:stearate ratios in Meibomian glands / Palmitate:stearate ratios in harderian glands: ORX rabbits, topical 2.5 mg/kg once daily 14 d, mean
From the text: The goal of this study was to compare the effects of Compound 1 and Compound 2, two tissue selective SARMs with differing androgenic potential, in modulating tear composition in an acute orchiectomized (ORX) rabbit model.
Twenty New Zealand white rabbits weighing approximately 3 lbs were allowed to acclimate for two weeks before the start of the study Animals were weighed on day 0 of the study, randomized according to body weight and allotted to the following dose groups:
Surgeries for the study were staggered to limit the maximum number of surgeries per day to six. One animal from each group was entered into the study every day and either sham or orchiectomy was performed as described below Animals were premedicated with glycopyrrolate (0.02 mg/kg) and anesthesia was induced with a combination of ketamine (15 mg/kg): medetomidine (0.25 mg/kg). Anesthesia was maintained with isoflurane (1 liter/hr). ORX was performed using a scrotal incision. For the sham operated animals, the scrotal sac was incised and skin closed using tissue glue Animals were revived from anesthesia using atipamezole (1 mg/kg) SQ. Analgesia was provided with buprenorphine (0.05 mg/kg).
Immediately after the animals had recovered from anesthesia, they were dosed with the appropriate test articles as indicated above. Drug dosing was done once daily for 14 d. Blood samples were collected at 30, 60, 120, 240 and 1440 minutes after dose administration on day 11 for pharmacokinetic analyses. Plasma was separated for HPLC analysis of parent drug concentrations. Tears were collected using Schirmer tear strips (Alcon, Tex.) on day 0 before surgery and 24 hours after the last administration of drug (day 15). The tears were stored at −80° C. until shipment for analysis. Lipids were hydrolyzed, extracted from the Schirmer strips, derivatized, and subjected to GC-FID to evaluate the lipid composition. The samples were evaluated for the presence of 28 saturated and unsaturated fatty acids that included methyl caprate (C10:0), methyl laurate (C12:0), methyl 11-dodecenoate (C12:1), methyl myristate (C14:0), methyl myristoleate (C14:1), methyl palmitate (C16:0), methyl palmitoleate (C16:1), methyl stearate (C18:0), methyl oleate (C18:1), methyl vaccenate (C18:1), methyl linoleate (C18:2), methyl gamma linoleate (C18:3), methyl linoleate (C18:3), methyl arachidate (C20:0), methyl 11-eicosenoate (C20:1), methyl 11,14 eicosadinoate (C20:2), methyl 8,11,14 eicosatrienoate (C20:3), methyl eicosapentaenoate (C20:5), methyl behenate (C22:0), methyl erucate (C22:1), methyl 13,16 docosaenoate (C22:2), methyl docosatetraenoate (C22:4), methyl docosapentaenoate (C22:5), methyl docosahexaenoate (C22:6), methyl lignocerate (C24:0), and methyl nervonate (C24:1). Area under the curve for each individual peak was determined using the GC ChemStation software. To normalize for the tear content, the lipid composition was expressed as a ratio of the lipid that was most affected by castration (palmitate) to one which remained relatively constant (stearate).
At the end of the study, the animals were euthanatized. The left harderian and Meibomian glands were collected for lipid analysis and snap frozen using an ethanol:dry ice bath. Samples were stored at −80° C. until shipment for analysis. The right eyelids were embedded in OCT medium and shipped to Paragon Biosciences (Washington D.C.) for histology and Oil-red-O quantification of lipids. Images of three separate fields were taken from each eyelid at random and the amount of cells staining red in each field was scored using commercially available software. A scoring scheme was adopted with a scale of 0-4 to evaluate the staining intensities with 0=<1% cells stained, 1+ for 2-5% of cells stained, 2+=6-10% stain, 3+=11-20% staining, 4+ for >21% cells stained.

| Structure (SMILES) | Amount of drug absorbed into systemic circulation at lower doses compared to exposure at 2.5 mg/kg [1] | AUC ([1]; 0.625 mg/kg, topical 0.625 mpk) [µM·h] | AUC ([1]; 1.25 mg/kg, topical 1.25 mpk) [µM·h] | Palmitate:stearate ratios in Meibomian glands [2] | Palmitate:stearate ratios in harderian glands [2] | Change of palmitate:stearate ratio in Meibomian glands ([2]; topical 2.5 mg/kg) | Change of palmitate:stearate ratio in harderian glands compared to control animals ([2]; topical 2.5 mg/kg) | Increase of tear palmitate:stearate ratio over intact vehicle treated animals ([2]; topical 2.5 mg/kg) [fold] | Increase of tear palmitate:stearate ratio relative to ORX vehicle-treated animals ([2]; topical 2.5 mg/kg) |
| --- | --- | --- | --- | --- | --- | --- | --- | --- | --- |
| C[C@](O)(COc1ccc(C#N)cc1)C(=O)Nc1ccc(C#N)c(C(F)(F)F)c1 [Compound 1, (S)—N-(4-Cyano-3-(trifluoromethyl)phenyl)-3-(4-cyanophenoxy)-2-hydroxy-2-methylpropanamide] | ⅛^th | 2.87 | 3.99 | 4.07^b | 5.1 | two fold increase | no change |  |  |
| C[C@](O)(COc1ccc(C#N)c(F)c1)C(=O)Nc1ccc(C#N)c(C(F)(F)F)c1 [Compound 2, (S)—N-(4-cyano-3-(trifluoromethyl)phenyl)-3-(4-cyano-3-fluorophenoxy)-2-hydroxy-2-methylpropanamide] | ¼^th | 3.2 | 6.92 | 2.82 | 7.76 | mild increase | significant increase | ~1.5 | approximately 2.5 times |
